Experimental data taken from paper PMC9917816, “STS1 and STS2 Phosphatase Inhibitor Baicalein Enhances the Expansion of Hematopoietic and Progenitor Stem Cells and Alleviates 5-Fluorouracil-Induced Myelosuppression” (International Journal of Molecular Sciences, 2023).

Columns and labels:
[1] = biological target: T1, STS2-HP (STS2 histidine phosphatase domain) (Homo sapiens, UniProt P57075); experiment: pNPP phosphatase inhibition assay, absorbance at […] nm; type: biochemical; details: read-out: % inhibition at 10 μg/mL
T1 construct: gene UBASH3A
T1 sequence (P57075 385-661 limits assumed): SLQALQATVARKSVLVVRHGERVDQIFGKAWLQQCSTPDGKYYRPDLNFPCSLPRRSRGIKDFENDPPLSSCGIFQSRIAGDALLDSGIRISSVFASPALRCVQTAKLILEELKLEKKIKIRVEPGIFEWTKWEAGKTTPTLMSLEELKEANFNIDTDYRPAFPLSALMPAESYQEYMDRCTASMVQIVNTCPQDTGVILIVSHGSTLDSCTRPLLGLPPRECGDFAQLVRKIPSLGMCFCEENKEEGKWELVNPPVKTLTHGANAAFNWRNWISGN

[2] = biological target: T2, STS1-HP (STS1 histidine phosphatase domain) (Homo sapiens, UniProt Q8TF42); experiment: as above; type: biochemical; details: pNPP substrate, pH 7.2, 25 °C, 10 min; name misprinted as baicalin in b9
T2 construct: gene UBASH3B

[3] = biological target: T2, STS1-HP (STS1 histidine phosphatase domain); experiment: capillary electrophoresis, migration time shift; type: binding; details: 20 mM PBS, pH 7.0, 20 kV, UV 230 nm

T2 sequence (Q8TF42 380-649 limits assumed): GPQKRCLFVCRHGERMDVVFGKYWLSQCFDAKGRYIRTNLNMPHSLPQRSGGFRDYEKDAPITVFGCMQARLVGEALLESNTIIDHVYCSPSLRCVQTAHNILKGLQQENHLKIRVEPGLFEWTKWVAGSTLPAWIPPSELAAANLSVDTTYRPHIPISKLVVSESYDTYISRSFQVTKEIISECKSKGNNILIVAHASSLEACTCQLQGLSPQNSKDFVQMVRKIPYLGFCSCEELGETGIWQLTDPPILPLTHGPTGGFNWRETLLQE

## O=c1cc(-c2ccccc2)oc2cc(O)c(O)c(O)c12 [baicalein]
[1]
  inhibition at 10 µg/mL: 13.8%
[2]
  % inhibition at 10 μg/mL: (BC) could significantly inhibit the phosphatase activity of STS1 in vitro
[3]
  capillary electrophoresis, migration time shift: migration times of STS1 and STS2 proteins were markedly delayed when BC was added
